According to ChEMBL document CHEMBL3044671, “Synthesis and in vitro antimicrobial and anti-tubercular evaluation of some quinoline-based azitidinone and thiazolidinone analogues” (2013):
Converted amounts (≈) assume the structure as drawn.

Key:
Format in all cases: functional
Candida albicans [1] = assay: Antimicrobial activity against Candida albicans MTCC 183 assessed as growth inhibition by agar streak dilution method
Bacillus subtilis [2] = assay: Antimicrobial activity against Bacillus subtilis MTCC 430 assessed as growth inhibition by agar streak dilution method
[3] = system: Mycobacterium tuberculosis; assay: Antitubercular activity against Mycobacterium tuberculosis H37Rv assessed as growth inhibition by BACTEC MGIT method
Staphylococcus aureus [4] = assay: Antimicrobial activity against Staphylococcus aureus MTCC 96 assessed as diameter of growth zone inhibition by agar streak dilution method
Aspergillus niger [5] = assay: Antimicrobial activity against Aspergillus niger MTCC 282 assessed as diameter of growth zone inhibition by agar streak dilution method
Bacillus subtilis [6] = assay: Antimicrobial activity against Bacillus subtilis MTCC 430 assessed as diameter of growth zone inhibition by agar streak dilution method
Escherichia coli [7] = assay: Antimicrobial activity against Escherichia coli MTCC 739 assessed as diameter of growth zone inhibition by agar streak dilution method
Candida albicans [8] = assay: Antimicrobial activity against Candida albicans MTCC 183 assessed as diameter of growth zone inhibition by agar streak dilution method
Aspergillus niger [9] = assay: Antimicrobial activity against Aspergillus niger MTCC 282 assessed as growth inhibition by agar streak dilution method
Escherichia coli [10] = assay: Antimicrobial activity against Escherichia coli MTCC 739 assessed as growth inhibition by agar streak dilution method
Pseudomonas aeruginosa [11] = assay: Antimicrobial activity against Pseudomonas aeruginosa MTCC 741 assessed as growth inhibition by agar streak dilution method
Pseudomonas aeruginosa [12] = assay: Antimicrobial activity against Pseudomonas aeruginosa MTCC 741 assessed as diameter of growth zone inhibition by agar streak dilution method
Staphylococcus aureus [13] = assay: Antimicrobial activity against Staphylococcus aureus MTCC 96 assessed as growth inhibition by agar streak dilution method

| SMILES | MIC (Candida albicans [1]) | MIC (Bacillus subtilis [2]) | MIC [3] | diameter of the inhibition zone (DIZ) (Staphylococcus aureus [4]) | diameter of the inhibition zone (DIZ) (Aspergillus niger [5]) | diameter of the inhibition zone (DIZ) (Bacillus subtilis [6]) | diameter of the inhibition zone (DIZ) (Escherichia coli [7]) | diameter of the inhibition zone (DIZ) (Candida albicans [8]) | MIC (Aspergillus niger [9]) | MIC (Escherichia coli [10]) | MIC (Pseudomonas aeruginosa [11]) | diameter of the inhibition zone (DIZ) (Pseudomonas aeruginosa [12]) | MIC (Staphylococcus aureus [13]) |
| --- | --- | --- | --- | --- | --- | --- | --- | --- | --- | --- | --- | --- | --- |
| O=C1CSC(c2cc3ccccc3nc2S)N1c1ccc([N+](=O)[O-])cc1 (configuration not stated) | 100 µg/mL (≈ 261 µM) | 50 µg/mL (≈ 130 µM) | 62.5 µg/mL (≈ 163 µM) | 23 mm | 25 mm | 23 mm | 23 mm | 18 mm | 25 µg/mL (≈ 65.2 µM) | 6.25 µg/mL (≈ 16.3 µM) | 12.5 µg/mL (≈ 32.6 µM) | 24 mm | 12.5 µg/mL (≈ 32.6 µM) |
| O=C1CSC(c2cc3ccccc3nc2S)N1c1ccccc1Cl (configuration not stated) | 100 µg/mL (≈ 268 µM) | 12.5 µg/mL (≈ 33.5 µM) | 125 µg/mL (≈ 335 µM) | 23 mm | 21 mm | 25 mm | 23 mm | 22 mm | 62.5 µg/mL (≈ 168 µM) | 12.5 µg/mL (≈ 33.5 µM) | 62.5 µg/mL (≈ 168 µM) | 23 mm | 6.25 µg/mL (≈ 16.8 µM) |
| O=C1CSC(c2cc3ccccc3nc2S)N1c1cccc(Cl)c1 (configuration not stated) | 62.5 µg/mL (≈ 168 µM) | 3.12 µg/mL (≈ 8.37 µM) | 125 µg/mL (≈ 335 µM) | 24 mm | 25 mm | 25 mm | 22 mm | 22 mm | 50 µg/mL (≈ 134 µM) | 50 µg/mL (≈ 134 µM) | 12.5 µg/mL (≈ 33.5 µM) | 25 mm | 6.25 µg/mL (≈ 16.8 µM) |
| O=C1CSC(c2cc3ccccc3nc2S)N1c1ccc(Cl)cc1 (configuration not stated) | 100 µg/mL (≈ 268 µM) | 3.12 µg/mL (≈ 8.37 µM) | 62.5 µg/mL (≈ 168 µM) | 25 mm | 25 mm | 25 mm | 23 mm | 24 mm | 12.5 µg/mL (≈ 33.5 µM) | 25 µg/mL (≈ 67 µM) | 25 µg/mL (≈ 67 µM) | 24 mm | 6.25 µg/mL (≈ 16.8 µM) |
| O=C1CSC(c2cc3ccccc3nc2S)N1c1ccc(F)cc1 (configuration not stated) | 25 µg/mL (≈ 70.1 µM) | 6.25 µg/mL (≈ 17.5 µM) | 62.5 µg/mL (≈ 175 µM) | 25 mm | 26 mm | 25 mm | 24 mm | 26 mm | 12.5 µg/mL (≈ 35.1 µM) | 12.5 µg/mL (≈ 35.1 µM) | 50 µg/mL (≈ 140 µM) | 24 mm | 3.12 µg/mL (≈ 8.75 µM) |
| Cc1cnc(N2C(=O)CSC2c2cc3ccccc3nc2S)s1 (configuration not stated) | 62.5 µg/mL (≈ 174 µM) | 25 µg/mL (≈ 69.5 µM) | 62.5 µg/mL (≈ 174 µM) | 24 mm | 23 mm | 23 mm | 24 mm | 24 mm | 62.5 µg/mL (≈ 174 µM) | 12.5 µg/mL (≈ 34.8 µM) | 62.5 µg/mL (≈ 174 µM) | 23 mm | 12.5 µg/mL (≈ 34.8 µM) |
| O=C(O)c1cn(C2CC2)c2cc(N3CCNCC3)c(F)cc2c1=O [CIPROFLOXACIN] |  | ≤ 1 µg/mL |  | 30 mm |  | 31 mm | 32 mm |  |  | ≤ 1 µg/mL | ≤ 1 µg/mL | 33 mm | ≤ 1 µg/mL |
| NNC(=O)c1ccncc1 [ISONIAZID] |  |  | 0.2 µg/mL (≈ 1.46 µM) |  |  |  |  |  |  |  |  |  |  |
| CC(=O)N1CCN(c2ccc(OCC3COC(Cn4ccnc4)(c4ccc(Cl)cc4Cl)O3)cc2)CC1 (configuration not stated) [KETOCONAZOLE] | ≤ 1 µg/mL |  |  |  | 30 mm |  |  | 33 mm | ≤ 3 µg/mL |  |  |  |  |
| CO[C@H]1/C=C/O[C@@]2(C)Oc3c(C)c(O)c4c(O)c(c(/C=N/N5CCN(C)CC5)c(O)c4c3C2=O)NC(=O)/C(C)=C\C=C\[C@H](C)[C@H](O)[C@@H](C)[C@@H](O)[C@@H](C)[C@H](OC(C)=O)[C@@H]1C [RIFAMPIN] |  |  | 40 µg/mL (≈ 48.6 µM) |  |  |  |  |  |  |  |  |  |  |
